Molecules are shown by their SMILES.

In one data set the test system is Boophilus microplus larvae. As to the kind of experiment: Test for acaricidal activity: treated filter paper envelope, larval mortality. Conditions: larvae in treated filter paper envelope; 25° C.; mortality assessed after 48 hours. As to the method: Test for Acaricidal Activity
A dose of 10 μg/cm^2 is created by evenly pipetting 0.5 ml of a 1 mg/ml solution of the test compound in a suitable solvent such as acetone or ethanol onto a Whatman No. 1 (Trade Mark) filter paper cut to a size of 8×6.25 cm. When dry, the paper is folded in half, sealed on two sides using a crimping device and placed in a Kilner jar containing a cotton wool pad dampened with water. The jar is then sealed and placed at 25° C. for 24 hours. Next, approximately 50 Boophilus microplus larvae are introduced into the treated paper envelope which is then crimped along the third side to effect a complete seal. The paper envelope is returned to the Kilner jar, which is sealed and placed at 25° C. for a further 48 hours. The papers are then removed and mortality assessed. Negative controls are provided by treating an appropriately cut filter paper with 0.5 ml of solvent only and following the same procedure. Activity at other doses is obtained by varying the concentration of the test solution.
Table 2 illustrates the in vitro activity of a selection of the compounds of the invention against Boophilus microplus larvae. Dosages required to produce 100% mortality are given in the final column as μg/cm^2.
Take `FC(F)(F)c1cc(Cl)c(-n2cc(C3CC3(Br)Br)c(Cl)n2)c(Cl)c1` (stereo not shown) [Example 10, 3-Chloro-4-(2,2-dibromocyclopropyl)-1-(2,6-dichloro-4-trifluoromethylphenyl)pyrazole]: the “Dosage required to produce 100% mortality” value stood at 1.00 μg/cm^2.

Consider `FC(F)(F)c1cc(Cl)c(-n2cc(C3CC3(Br)Br)c(Br)n2)c(Cl)c1` (stereo not shown) [Example 11, 3-Bromo4-(2,2-dibromocyclopropyl)-1-(2,6-dichloro-4-trifluoromethylphenyl)pyrazole], for which the “Dosage required to produce 100% mortality” value stood at 1.00 μg/cm^2.

Test system in a further data set: not given
Test: not given
Settings: not given
As usually defined, the melting point is the temperature, or range, at which the solid turns liquid. The compound `C=C(C)c1nn(-c2c(Cl)cc(C(F)(F)F)cc2Cl)cc1C1CC1(Br)Br` (stereo not shown) [Example 1, 4-(2,2-Dibromocyclopropyl)-1-(2,6-dichloro-4-trifluoromethylphenyl)-3-(propen-2-yl)pyrazole] gave a melting point of 86.5 to 88.2 °C.

`Nc1nn(-c2c(Cl)cc(C(F)(F)F)cc2Cl)cc1C1CC1(Br)Br` (stereo not shown) [Example 8, 3-Amino-4-(2,2-dibromocyclopropyl)-1-(2,6-dichloro-4-trifluoromethylphenyl)pyrazole]: the melting point was in the range of 124.9 to 126 °C.

The compound `FC(F)(F)c1cc(Cl)c(-n2cc(C3CC3(Br)Br)c(C=C(Br)Br)n2)c(Cl)c1` (stereo not shown) [Example 6, 4-(2,2-Dibromocyclopropyl)-3-(2,2-dibromoethenyl)-1-(2,6-dichloro-4-trifluoromethylphenyl)pyrazole] came in with a melting point of 106 to 107 °C.

`NC(=O)c1nn(-c2c(Cl)cc(C(F)(F)F)cc2Cl)cc1C1CC1(Br)Br` (stereo not shown) [Example 7, 3-Carbamoyl-4-(2,2-dibromocyclopropyl)-1-(2,6-dichloro-4-trifluoromethylphenyl)pyrazole] displayed a melting point of 186.2 to 187.3 °C.

The subject of another data set is adult Stomoxys calcitrans. The data set is described as follows: Test for insecticidal activity: topical application to adult flies, mortality at 24 hours. The format is in vivo. Conditions: acetone solution (1 μl) applied to thorax, mortality assessed 24 hours after dosing. On the procedure: Test for Insecticidal Activity Adult flies (Stomoxys calcitrans) are collected and anaesthetized using CO2. An acetone solution (1 μl) containing the test compound is applied directly to the thorax of each fly and then the flies are placed carefully into a 50 ml tube covered with damp gauze to recover from the CO2. Negative controls have acetone (1 μl) dispensed onto them. Mortality is assessed 24 hours after dosing. Table 1 illustrates the in vivo activity of a selection of the compounds of the invention against adult Stomoxys calcitrans. Dosages required to produce 100% mortality are given in the final column as μg/fly.
For the compound `FC(F)(F)c1cc(Cl)c(-n2cc(C3CC3(Br)Br)cn2)c(Cl)c1` (stereo not shown) [Example 9, 4-(2,2-Dibromocyclopropyl)-1-(2,6-dichloro-4-trifluoromethylphenyl)pyrazole], the “Dosage required to produce 100% mortality” value turned out to be 0.05 μG/FLY.

With `C=Cc1nn(-c2c(Cl)cc(C(F)(F)F)cc2Cl)cc1C1CC1(Br)Br` (stereo not shown) [Example 4, 4-(2,2-Dibromocyclopropyl)-1-(2,6-dichloro-4-trifluoromethylphenyl)-3-ethenylpyrazole], the “Dosage required to produce 100% mortality” value was 0.10 μG/FLY.

With `FC(F)(F)c1cc(Cl)c(-n2cc(C3CC3(Br)Br)c(Br)n2)c(Cl)c1` (stereo not shown) [Example 11, 3-Bromo4-(2,2-dibromocyclopropyl)-1-(2,6-dichloro-4-trifluoromethylphenyl)pyrazole], the “Dosage required to produce 100% mortality” value was 0.05 μG/FLY.

Consider `FC(F)=Cc1nn(-c2c(Cl)cc(C(F)(F)F)cc2Cl)cc1C1CC1(Br)Br` (stereo not shown) [Example 5, 4-(2,2-Dibromocyclopropyl)-1-(2,6-dichloro-4-trifluoromethylphenyl)-3-(2,2-difluoroethenyl)pyrazole], for which the “Dosage required to produce 100% mortality” value was determined as 0.10 μG/FLY.

The record behind these values is patent publication US20020173662A1, “Parasiticidal pyrazoles” (priority 1998, published 2002).
